Results reported in ChEMBL document CHEMBL3045133, “A 2D image-based method for modeling some c-Src tyrosine kinase inhibitors” (Med Chem Res, 2013).

Molecular target: Proto-oncogene tyrosine-protein kinase Src (Homo sapiens, UniProt P12931)
Assay: Inhibition of c-Src kinase (unknown origin)

Sequence of Proto-oncogene tyrosine-protein kinase Src (P12931 2-536 limits assumed): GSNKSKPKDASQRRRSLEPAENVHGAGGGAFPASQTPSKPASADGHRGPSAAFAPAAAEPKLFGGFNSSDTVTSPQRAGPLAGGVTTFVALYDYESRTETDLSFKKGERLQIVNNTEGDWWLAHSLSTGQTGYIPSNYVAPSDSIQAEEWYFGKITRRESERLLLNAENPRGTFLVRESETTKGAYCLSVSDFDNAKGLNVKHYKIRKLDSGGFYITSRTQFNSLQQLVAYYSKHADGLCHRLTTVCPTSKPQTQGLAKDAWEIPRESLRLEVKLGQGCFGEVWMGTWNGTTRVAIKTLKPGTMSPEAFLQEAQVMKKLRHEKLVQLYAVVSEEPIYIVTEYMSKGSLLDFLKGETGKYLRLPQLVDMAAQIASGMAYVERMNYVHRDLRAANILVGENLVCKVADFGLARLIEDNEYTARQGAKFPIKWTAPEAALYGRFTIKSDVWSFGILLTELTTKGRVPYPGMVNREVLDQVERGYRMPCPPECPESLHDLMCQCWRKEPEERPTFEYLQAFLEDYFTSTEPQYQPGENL

IC50: 6.31 µM
SMILES: Cc1ccccc1-c1cn(-c2ccccc2)c2ncnc(N)c12
